Results taken from patent US20040009955A1, “Method of prophylaxis” (priority 2002, published 2004).

Test system: MT-1 breast cancer cells
Test: Symptom free survival of nude rats inoculated with MT-1 breast cancer cells (treatment efficacy against skeletal metastases)
Format: in vivo, nude rats (Han: rnu/rnu Rowett)
Conditions: for increase in survival relative to the control: Wilcoxon rank sum test
[1] = Without Aredia, 300 kBq/ka ^223Ra (regimen A)

Experimental: The effect of ^223Ra in prolonging symptom free survival of rate was studied for two treatment regimens [A] comparative and [B] according to the invention.
Treatment regimen [A]: Animals were treated seven days after tumor cell inoculation. At this time animal body weights varied between 80 and 110 grams and animals were randomized in groups so the average weight for a group was about 100 g at the time of treatment. The treatment groups received 11 or 30 kBq of ^223Ra administered by tail vein injection while animals in the control group were injected with an equivalent volume of 5 mM sodium citrate solution.
Treatment regimen [B]: 3-Amino-1-hydroxypropylidene bisphosphonate, di-sodium salt (Aredia™, Novartis AG, Switzerland), was added as a supplemental treatment to ^223Ra. Animals in the treatment groups were treated on day 7 after tumor cell inoculation with 10 or 30 kBq of ^223Ra. The following day, 1.5 mg/kg b.w. of Aredia™, was administered by i.v. injection. Animals in the control group received 5 mM sodium citrate solution on day 7 and 1.5 mg/kg b.w. of Aredia™ on day 8.
Symptom free animals were followed for at least 50 days after the treatment. The significance of treatment response was related to symptom free survival and evaluated using the Wilcoxon rank sum test.

## [223Ra] [^223Ra, radium-223]
60 kBq ^223Ra, regimen A
  survival improvement compared to the control group: not significant
60 kBq ^223Ra, regimen A (1/5)
  symptom free survivors: 20%
100 kBq/kg ^223Ra, regimen A (5/14)
  symptom free survivors beyond 50 days: 36%
100 kBq/kg ^223Ra, regimen A
  increase in survival relative to the control: significant at the 1% level
100 kBq/kg and 300 kBq/kg ^223Ra groups taken together, regimen A, P <0.05
  increase in survival compared to the control group, groups taken together: significant
300 kBq/kg ^223Ra, regimen A
  increase in survival relative to the control: significant at the 1% level
Without Aredia, 100 kBq/kg ^223Ra (regimen A)
  Survival beyond 67 day: 33%
Without Aredia, 100 kBq/kg ^223Ra i.v. day 7 after tumor cell inoculation (regimen A)
  Mean survival: 38 days
[1]
  Survival beyond 67 day: 0%
  Survival range: 27-61
Without Aredia, 300 kBq/ka ^223Ra i.v. day 7 (regimen A)
  Mean survival: 38 days
